These results are taken from patent US9018208B2, “Heterocycles as potassium channel modulators” (Icagen Inc., priority 2007, dated 2015).

The test relates to SH-SY5Y M-currents (KCNQ2, KCNQ3 and KCNQ5). Kind of test: SH-SY5Y native cell line FLIPR assay (voltage-sensitive dye DiBAC). Type of test: cell-based, mouse neuroblastoma, rat glioma hybrid cell line. The conditions noted are these: FLIPR assay, SH-SY5Y native cell line; Table 2; read-out: SH-SY5Y EC50. In short, it runs like this: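 Response is peak DiBAC fluorescence change, normalised to the maximum from a positive control agent, sampled every 30 s over 25 min. Before compound addition, SH-SY5Y cells differentiated with PGE1 plus isomethylbutylxanthine were dye-loaded for 1 h in EBSS with […] DiBAC.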
For the molecule `O=C(CCC1CC1)Nc1nc2ccc(F)cn2c1-c1cccc(C(F)(F)F)c1` [Compound 280, 3-cyclopropyl-N-(6-fluoro-3-(3-(trifluoromethyl)phenyl)imidazo[1,2-a]pyridin-2-yl)propanamide], the EC50 was in the range of 500 to 3000 nM.
`O=C(CCC(F)(F)F)Nc1nc2ccc(F)cn2c1-c1cccc(C(F)(F)F)c1` [Compound 281, 4,4,4-trifluoro-N-(6-fluoro-3-(3-(trifluoromethyl)phenyl)imidazo[1,2-a]pyridin-2-yl)butanamide]: the EC50 was in the range of 500 to 3000 nM.
On to `CC(CC(=O)Nc1nc2ccc(F)cn2c1-c1cccc(C(F)(F)F)c1)C(F)(F)F` (centres unmarked) [Compound 282, 4,4,4-trifluoro-N-(6-fluoro-3-(3-(trifluoromethyl)phenyl)imidazo[1,2-a]pyridin-2-yl)-3-methylbutanamide], for which the EC50 was < 500 nM.
Take `CC(C)(C)CCC(=O)Nc1nc2ccc(F)cn2c1-c1cccc(C(F)(F)F)c1` [Compound 283, N-(6-fluoro-3-(3-(trifluoromethyl)phenyl)imidazo[1,2-a]pyridin-2-yl)-4,4-dimethylpentanamide]: the 50% effective concentration (EC50) is < 500 nM.
The same measure for `O=C(CC(F)(F)F)Nc1nc2ccc(F)cn2c1-c1cccc(Cl)c1` [Compound 284, N-(3-(3-chlorophenyl)-6-fluoroimidazo[1,2-a]pyridin-2-yl)-3,3,3-trifluoropropanamide]: 500 to 3000 nM.
`O=C(CCC(F)(F)F)Nc1nc2ccc(F)cn2c1-c1cccc(Cl)c1` [Compound 285, N-(3-(3-chlorophenyl)-6-fluoroimidazo[1,2-a]pyridin-2-yl)-4,4,4-trifluorobutanamide]: the EC50 was 500 to 3000 nM.
Turning to `CC1(CC(=O)Nc2nc3ccc(F)cn3c2-c2cccc(Cl)c2)CCCC1` [Compound 286, N-(3-(3-chlorophenyl)-6-fluoroimidazo[1,2-a]pyridin-2-yl)-2-(1-methylcyclopentyl)acetamide], the EC50 is < 500 nM.
Turning to `CC(C)(C)OCCC(=O)Nc1nc2ccc(F)cn2c1-c1cccc(C(F)(F)F)c1` [Compound 287, 3-tert-butoxy-N-(6-fluoro-3-(3-(trifluoromethyl)phenyl)imidazo[1,2-a]pyridin-2-yl)propanamide], the concentration giving a half-maximal response (EC50) lay within 500 to 3000 nM.
`CC(C)C(C)C(=O)Nc1nc2ccc(F)cn2c1-c1cccc(C(F)(F)F)c1` (centres unmarked) [Compound 288, N-(6-fluoro-3-(3-(trifluoromethyl)phenyl)imidazo[1,2-a]pyridin-2-yl)-2,3-dimethylbutanamide]: the concentration giving a half-maximal response (EC50) is 500 to 3000 nM.
For `O=C(Nc1nc2ccc(F)cn2c1-c1cccc(C(F)(F)F)c1)C1CCCC1` [Compound 289, N-(6-fluoro-3-(3-(trifluoromethyl)phenyl)imidazo[1,2-a]pyridin-2-yl)cyclopentanecarboxamide] the value was < 500 nM; for `O=C(Nc1nc2ccc(F)cn2c1-c1ccc(OC(F)(F)F)cc1)C1CCCC1` [Compound 290, N-(6-fluoro-3-(4-(trifluoromethoxy)phenyl)imidazo[1,2-a]pyridin-2-yl)cyclopentanecarboxamide], < 500 nM.
As for `O=C(Nc1nc2ccc(F)cn2c1-c1ccc(OC(F)(F)F)cc1)C1CCCCCC1` [Compound 291, N-(6-fluoro-3-(4-(trifluoromethoxy)phenyl)imidazopyridin-2-yl)cycloheptanecarboxamide], the half-maximal effective concentration (EC50) was < 500 nM.
Regarding `O=C(Nc1nc2ccc(F)cn2c1-c1ccc(OC(F)(F)F)cc1)C1Cc2ccccc2C1` [Compound 292, N-(6-fluoro-3-(4-(trifluoromethoxy)phenyl)imidazo[1,2-a]pyridin-2-yl)-2,3-dihydro-1H-indene-2-carboxamide], the EC50 fell in the range of 500 to 3000 nM.
Regarding `O=C(Cc1ccccc1)Nc1nc2ccc(F)cn2c1-c1ccc(OC(F)(F)F)c(F)c1` [Compound 295, N-(6-fluoro-3-(3-fluoro-4-(trifluoromethoxy)phenyl)imidazo[1,2-a]pyridin-2-yl)-2-phenylacetamide], the concentration giving a half-maximal response (EC50) was < 500 nM.
